Test results from PMC6560083, “A mechanism to prevent production of reactive oxygen species by Escherichia coli respiratory complex I” (Nature Communications, 2019).

Key:
[1] = biological target: T1, NuoEF of Aquifex aeolicus complex I (Aquifex aeolicus, UniProt O66841); assay: X-ray crystal structure, soaked crystals; format: binding
T1 construct: gene nuoF; electron input subcomplex, NuoE (18 kDa) and NuoF (44 kDa) heterodimer, C-terminal hexahistidine tag on NuoF, expressed in E. coli; with NADH-quinone oxidoreductase subunit E
T1 sequence (O66841 1-426): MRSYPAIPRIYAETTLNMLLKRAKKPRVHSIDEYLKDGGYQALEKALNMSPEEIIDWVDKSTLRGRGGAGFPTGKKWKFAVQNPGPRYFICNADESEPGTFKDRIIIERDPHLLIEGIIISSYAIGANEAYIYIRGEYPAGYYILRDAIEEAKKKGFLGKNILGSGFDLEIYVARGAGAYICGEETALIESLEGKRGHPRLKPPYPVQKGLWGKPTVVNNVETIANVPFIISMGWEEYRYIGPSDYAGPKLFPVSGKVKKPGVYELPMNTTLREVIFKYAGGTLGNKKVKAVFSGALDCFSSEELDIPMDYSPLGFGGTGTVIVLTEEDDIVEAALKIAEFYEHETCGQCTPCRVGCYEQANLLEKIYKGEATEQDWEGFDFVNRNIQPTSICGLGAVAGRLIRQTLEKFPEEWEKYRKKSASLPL
T1 sequence (O66842 1-160 partner): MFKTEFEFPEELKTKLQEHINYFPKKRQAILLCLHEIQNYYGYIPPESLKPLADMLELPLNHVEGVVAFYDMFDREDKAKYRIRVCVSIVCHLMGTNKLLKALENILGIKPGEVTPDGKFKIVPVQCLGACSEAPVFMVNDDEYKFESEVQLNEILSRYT

[2] = biological target: T2, NuoEF of Aquifex aeolicus complex I (Aquifex aeolicus, UniProt O66841, S96M); assay: X-ray crystal structure, soaked crystals; format: binding
T2 construct: gene nuoF; electron input subcomplex, NuoE (18 kDa) and NuoF (44 kDa) heterodimer, C-terminal hexahistidine tag on NuoF, expressed in E. coli; with NADH-quinone oxidoreductase subunit E

[3] = biological target: T3, NuoEF of Aquifex aeolicus complex I (Aquifex aeolicus, UniProt O66841); assay: X-ray crystal structure, soaked crystals; format: binding; details: oxidized
T3 construct: gene nuoF; electron input subcomplex, NuoE (18 kDa) and NuoF (44 kDa) heterodimer, C-terminal hexahistidine tag on NuoF, expressed in E. coli; with NADH-quinone oxidoreductase subunit E

[4] = biological target: T3, NuoEF of Aquifex aeolicus complex I; assay: X-ray crystal structure, soaked crystals; format: binding; details: oxidized; ADP moiety defined, nicotinamide ring and its ribose not seen
[5] = biological target: T1, NuoEF of Aquifex aeolicus complex I; assay: X-ray crystal structure; format: binding; details: bound cofactor of NuoF, oxidized (6HL2) and dithionite-reduced (6HL4)
[6] = substrate: NC(=O)C1=CN([C@@H]2O[C@H](COP(=O)(O)OP(=O)(O)OC[C@H]3O[C@@H](n4cnc5c(N)ncnc54)[C@H](O)[C@@H]3O)[C@@H](O)[C@H]2O)C=CC1; assay: purified protein; format: biochemical, Escherichia coli; details: 50 mM MES/NaOH, 50 mM NaCl, pH 6.0, electron acceptor of the Km titration not clearly stated (decyl-ubiquinone or ferricyanide)
[7] = biological target: T4, Aquifex aeolicus NuoF variant S96M (Aquifex aeolicus, UniProt O66841 1-426, S96M^F); assay: crystal structure; NuoEF subcomplex crystallized at 20 °C by sitting drop vapor diffusion, 0.1 M Tris/HCl, 1.0 M sodium citrate, pH 6.9-7.1; air-oxidized, dithionite- or NADH-reduced, with and without soaked NAD+ or NADH; details: both partners purified
T4 construct: NuoF of Aquifex aeolicus complex I with S96 exchanged for methionine (the residue at the homologous position of E. coli NuoF); The His tag is told for the original NuoF; the variants were purified in the same way (Ni2+-IDA); also called S96M^F; NuoEF S96M^F; source: overproducing E. coli strain, purified together with NuoE (Source 15Q anion exchange, Ni2+-IDA, size exclusion)
T4 sequence (looked up): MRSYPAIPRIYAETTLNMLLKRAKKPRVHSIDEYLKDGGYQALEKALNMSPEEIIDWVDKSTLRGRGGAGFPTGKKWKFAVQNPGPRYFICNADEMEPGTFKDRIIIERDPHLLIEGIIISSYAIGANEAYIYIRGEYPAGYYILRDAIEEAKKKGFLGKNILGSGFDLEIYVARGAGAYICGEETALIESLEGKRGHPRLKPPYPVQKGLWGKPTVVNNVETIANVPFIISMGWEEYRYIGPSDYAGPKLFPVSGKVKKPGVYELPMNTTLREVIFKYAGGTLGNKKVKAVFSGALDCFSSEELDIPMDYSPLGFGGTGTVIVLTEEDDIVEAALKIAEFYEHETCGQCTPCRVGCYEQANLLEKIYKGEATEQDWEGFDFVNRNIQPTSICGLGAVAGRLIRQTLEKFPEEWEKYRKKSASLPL

[8] = biological target: T5, Aquifex aeolicus complex I subunit NuoF (Aquifex aeolicus, UniProt O66841 1-426); assay: as above; details: both partners purified
T5 construct: NuoF, subunit of the NADH:ubiquinone oxidoreductase (complex I) of Aquifex aeolicus; 44 kDa; the model contains 418 amino acids, eight residues at the C-terminus and the following hexahistidine tag not defined; Co-produced and co-purified with NuoE as the subcomplex NuoEF; also called original NuoEF (subunit F); source: overproducing E. coli strain, purified together with NuoE (Source 15Q anion …)
T5 sequence (looked up): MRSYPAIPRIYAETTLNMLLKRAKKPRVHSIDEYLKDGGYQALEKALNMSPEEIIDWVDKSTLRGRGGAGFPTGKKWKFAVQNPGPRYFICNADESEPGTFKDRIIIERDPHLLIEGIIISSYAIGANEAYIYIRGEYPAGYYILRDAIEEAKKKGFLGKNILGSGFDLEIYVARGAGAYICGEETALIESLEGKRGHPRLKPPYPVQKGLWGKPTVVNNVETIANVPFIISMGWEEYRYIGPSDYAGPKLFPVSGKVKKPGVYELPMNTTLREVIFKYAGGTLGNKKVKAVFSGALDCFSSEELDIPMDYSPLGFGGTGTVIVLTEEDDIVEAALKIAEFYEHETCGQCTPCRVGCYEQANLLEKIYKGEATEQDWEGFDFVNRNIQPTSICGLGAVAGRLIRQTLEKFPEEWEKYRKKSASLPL

In the case of `NC(=O)C1=CN([C@@H]2O[C@H](COP(=O)(O)OP(=O)(O)OC[C@H]3O[C@@H](n4cnc5c(N)ncnc54)[C@H](O)[C@@H]3O)[C@@H](O)[C@H]2O)C=CC1` [NADH], the “X-ray crystal structure, soaked crystals” value ([1]; NADH soak, reduced state, 1.8-1.9 Å, nicotinamide in tight position, 6HLA with dithionite plus NADH) is reported as “crystals of NuoEF were soaked with NAD^+, with NADH and with NADH plus dithionite” and the “X-ray crystal structure, soaked crystals” value ([2]; reduced) is reported as 6Q9K (variant S96M, reduced with NADH).

For `NC(=O)c1ccc[n+]([C@@H]2O[C@H](COP(=O)(O)OP(=O)(O)OC[C@H]3O[C@@H](n4cnc5c(N)ncnc54)[C@H](O)[C@@H]3O)[C@@H](O)[C@H]2O)c1` [NAD^+], the “X-ray crystal structure, soaked crystals” value [3] was 6HLJ (variant G129S, oxidized with NAD^+), the “X-ray crystal structure, soaked crystals” value [4] was “the oxidized G129D^E variant was soaked with NAD^+” and the “X-ray crystal structure, soaked crystals” value ([1]; oxidized state, 10 mM NAD+ soak, 2.0 Å, loose position, 6HLI: dithionite-reduced, near tight position) was “crystals of NuoEF were soaked with NAD^+, with NADH and with NADH plus dithionite”. For the same molecule, the “X-ray crystal structure, soaked crystals” value ([2]; oxidized, 3.22 Å) was 6R7P (variant S96M, oxidized with NAD^+).

For `Cc1cc2nc3c(=O)[nH]c(=O)nc-3n(C[C@H](O)[C@H](O)[C@H](O)COP(=O)(O)O)c2cc1C` [FMN], the X-ray crystal structure [5] was “Subunit NuoF binds the FMN cofactor as well as cluster N3”.

B1: E. coli complex I (Escherichia coli K-12) (protein)
chain: MKNIIRTPETHPLTWRLRDDKQPVWLDEYRSKNGYEGARKALTGLSPDEIVNQVKDAGLKGRGGAGFSTGLKWSLMPKDESMNIRYLLCNADEMEPGTYKDRLLMEQLPHLLVEGMLISAFALKAYRGYIFLRGEYIEAAVNLRRAIAEATEAGLLGKNIMGTGFDFELFVHTGAGRYICGEETALINSLEGRRANPRSKPPFPATSGAWGKPTCVNNVETLCNVPAILANGVEWYQNISKSKDAGTKLMGFSGRVKNPGLWELPFGTTAREILEDYAGGMRDGLKFKAWQPGGAGTDFLTEAHLDLPMEFESIGKAGSRLGTALAMAVDHEINMVSLVRNLEEFFARESCGWCTPCRDGLPWSVKILRALERGEGQPGDIETLEQLCRFLGPGKTFCAHAPGAVEPLQSAIKYFREEFEAGIKQPFSNTHLINGIQPNLLKERW
notes: with NADH-quinone oxidoreductase subunit E; NADH-quinone oxidoreductase subunit G; NADH-quinone oxidoreductase subunit B; NADH-quinone oxidoreductase subunit C/D; NADH-quinone oxidoreductase subunit I; NADH-quinone oxidoreductase subunit A; NADH-quinone oxidoreductase subunit H; NADH-quinone oxidoreductase subunit J; NADH-quinone oxidoreductase subunit K; NADH-quinone oxidoreductase subunit L; …
B1 was tested, and the Km [6] was 13 ± 1 µM.

B2: Aquifex aeolicus complex I subunit NuoE (natural protein)
chain: MFKTEFEFPEELKTKLQEHINYFPKKRQAILLCLHEIQNYYGYIPPESLKPLADMLELPLNHVEGVVAFYDMFDREDKAKYRIRVCVSIVCHLMGTNKLLKALENILGIKPGEVTPDGKFKIVPVQCLGACSEAPVFMVNDDEYKFESEVQLNEILSRYT
notes: NuoE, subunit of the NADH:ubiquinone oxidoreductase (complex I) of Aquifex aeolicus; 18 kDa; the model comprises 154 amino acids, the first six N-terminal residues not defined (residues up to 160); holds the [2Fe-2S] cluster N1a; Co-produced and co-purified with His-tagged NuoF as the subcomplex NuoEF; also called original NuoEF (subunit E); source: overproducing E. coli strain, purified together …
B2: binds [7]; binds [8].

B3: Aquifex aeolicus NuoE variant G129D (natural protein)
chain: MFKTEFEFPEELKTKLQEHINYFPKKRQAILLCLHEIQNYYGYIPPESLKPLADMLELPLNHVEGVVAFYDMFDREDKAKYRIRVCVSIVCHLMGTNKLLKALENILGIKPGEVTPDGKFKIVPVQCLDACSEAPVFMVNDDEYKFESEVQLNEILSRYT
notes: NuoE of Aquifex aeolicus complex I with G129 exchanged for aspartate; also called G129D^E; Asp-variant of NuoEF; source: E. coli, purified together with NuoF (Source 15Q anion exchange, Ni2+-IDA, size exclusion)
B3: binds [8].

B4: Aquifex aeolicus NuoE variant G129S (natural protein)
chain: MFKTEFEFPEELKTKLQEHINYFPKKRQAILLCLHEIQNYYGYIPPESLKPLADMLELPLNHVEGVVAFYDMFDREDKAKYRIRVCVSIVCHLMGTNKLLKALENILGIKPGEVTPDGKFKIVPVQCLSACSEAPVFMVNDDEYKFESEVQLNEILSRYT
notes: NuoE of Aquifex aeolicus complex I with G129 exchanged for serine; also called G129S^E; Ser-variant of NuoEF; source: E. coli, purified together with NuoF (Source 15Q anion exchange, Ni2+-IDA, size exclusion)
B4: binds [8].
